Where two headings read alike, the source gives them in different places.
Key:
Assay type in all cases: binding
[1] = target: T1, CIB1 and αIIb interaction (GST-CIB1 : F-αIIb peptide) (Homo sapiens, UniProt Q99828); test: FP assay, 384-well format (screen); design: 384-well SCREEN Efficacy (%): concentration or dose not given beside the values; conditions: for IC50: read-out: 384-well SCREEN IC50
T1 construct: made in house; host or cells: BL-21 plus RIL cells (E. coli)
T1 sequence (Q99828 1-191): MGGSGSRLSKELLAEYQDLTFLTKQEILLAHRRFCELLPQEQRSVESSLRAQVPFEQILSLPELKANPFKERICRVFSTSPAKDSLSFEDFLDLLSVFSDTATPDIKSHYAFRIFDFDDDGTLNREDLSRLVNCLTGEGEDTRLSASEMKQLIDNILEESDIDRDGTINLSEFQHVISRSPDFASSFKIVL

[2] = target: T2, GST-CIB1 : F-scrambled peptide (Homo sapiens, UniProt Q99828); test: FP scrambled-peptide counter screen, 384-well format; conditions: for IC50: read-out: 384-well COUNTERSCREEN IC50; for 384-well COUNTERSCREEN Confirm?: *: Curve in opposite direction
T2 construct: made in house; host or cells: BL-21 plus RIL cells (E. coli)
T2 sequence (Q99828 1-191): T1 sequence (Q99828 1-191)

[3] = target: T3, CIB1 and αIIb interaction (CIB1-GST : F-αIIb peptide) (Homo sapiens, UniProt Q99828); test: FP assay, 1536-well qHTS format (primary and confirmatory screen)
T3 construct: made in house; host or cells: BL-21 plus RIL cells (E. coli)
T3 sequence (Q99828 1-191): T1 sequence (Q99828 1-191)

[4] = target: T2, GST-CIB1 : F-scrambled peptide; test: FP scrambled-peptide counter screen, 1536-well format; conditions: for IC50: read-out: COUNTERSCREEN IC50
[5] = confirmatory screen, YES/NO call
[6] = confirmatory screen, qHTS curve class, negative sign = inhibitory curve
[7] = confirmatory screen, negative = inhibition
[8] = confirmatory screen, read-out: CONFIRMATORY SCREEN IC50
[9] = qHTS primary screen hits, Table S2, negative = inhibition
[10] = qHTS primary screen hits, Table S2, negative sign = inhibitory curve
[11] = qHTS primary screen hits, Table S2, read-out: IC50
[12] = scrambled-peptide counterscreen
[13] = scrambled-peptide counterscreen, YES/NO call
[14] = scrambled-peptide counterscreen, qHTS curve class
[15] = qHTS FP screen hits, Table S2, negative = inhibition
[16] = qHTS FP screen hits, Table S2, read-out: IC50

| SMILES | 384-well SCREEN Efficacy (%) ([1]; F-αIIb peptide) | 384-well SCREEN Confirm? ([1]; F-αIIb peptide, YES/NO) | IC50 ([1]; F-αIIb peptide) | 384-well COUNTERSCREEN Efficacy (%) ([2]; F-scrambled peptide) | IC50 ([2]; F-scrambled peptide) | CONFIRMATORY SCREEN Confirm? [3, 5] | CONFIRMATORY SCREEN Curve Class [3, 6] | CONFIRMATORY SCREEN Efficacy (%) [3, 7] | IC50 [3, 8] | Efficacy (%) [3, 9] | IC50 [3, 11] | COUNTERSCREEN Efficacy (%) [4, 12] | COUNTERSCREEN Confirm? [4, 13] | COUNTERSCREEN Curve Class [4, 14] | IC50 [4, 12] | 384-well COUNTERSCREEN Confirm? ([2]; F-scrambled peptide) | Efficacy (%) [3, 15] | other results |
| --- | --- | --- | --- | --- | --- | --- | --- | --- | --- | --- | --- | --- | --- | --- | --- | --- | --- | --- |
| O=C(O)C(F)(F)F.OCc1ccc(-c2ccc3ncnc(NCc4nccs4)c3c2)o1 [NCGC00238383-01] | 69% | YES | 25.1 µM | 47% | 39.8 µM | YES | -3 | -52% | 70.8 µM | -70% | 39.8 µM | -16% | YES | 4 |  |  |  | Curve Class [3, 10]: -2.2 |
| Oc1c(Cl)cc(Cl)c(Cl)c1Cc1c(O)c(Cl)cc(Cl)c1Cl [NCGC00091195-08] | 55% |  | > 120 µM | 205% | 31.6 µM | YES | -1.4 | -38% | 7.1 µM | -59% | 50.1 µM | 106% | YES |  | 89.1 µM |  |  | Curve Class ([3]; qHTS primary screen hits, Table S2, negative sign = inhibitory curve, several classes where COUNT > 1): -2.2 |
| Cc1cc(NS(=O)(=O)c2ccc(NCCc3ccc(Cl)c(Cl)c3)cc2)no1.O=C(O)C(F)(F)F [NCGC00244100-02] | 42% | YES | 22.4 µM | 23% | > 120 µM | YES | -2.4 | -36% |  |  |  | 132% | YES | 3 | 39.8 µM | YES | -22% | IC50 [3, 16]: 22.4 µM |
| CCC(=O)NC(c1cccs1)c1cc([N+](=O)[O-])c2cccnc2c1O (stereo not drawn) [NCGC00182956-10] | 23% |  | > 120 µM | 47% | 17.7 µM | YES | -3 | -53% | 50.1 µM |  |  | -17% | YES | 4 |  |  | -51% | IC50 [3, 16]: 46.6 µM |
| CCOC(=O)N1CCN([N+]([O-])=NOc2ccc([N+](=O)[O-])cc2[N+](=O)[O-])CC1 [NCGC00165815-03] | 61% | YES | 1.8 µM | 48% | 15.8 µM | YES | -1.2 | -62% | 6.3 µM |  |  | -56% | YES | -2.2 | 44.7 µM | YES |  |  |
| CCCCCCCCOc1ccccc1C(=O)Nc1ccc(C(=O)OCC[N+](C)(CC)CC)cc1.[Br-] [NCGC00163507-02] | 69% | YES | 12.6 µM | 39% | > 120 µM | YES | -3 | -60% | 39.8 µM |  |  | 0% | YES | 4 |  | YES |  |  |
| O=C(CN(c1cccc(Br)c1)S(=O)(=O)c1ccccc1)NN=CC1=CC(=[N+]([O-])O)C=CC1=O.O=C(O)C(F)(F)F [NCGC00248455-01] | 40% | YES | 11.2 µM | 52% | 15.8 µM | YES | -2.1 | -91% | 31.6 µM | -62% | 17.8 µM | -13% | YES | 4 |  |  |  | Curve Class [3, 10]: -2.2 |
| N#Cc1ccc(N2N=C3c4ccc(C(=O)O)cc4CC[C@@H]3[C@@H]2C2CCCC2)cc1Cl [NCGC00485023-01] | -15% |  |  | 40% |  | YES | -2.4 | -30% |  |  |  | 165% | YES |  |  |  | -32% | Curve Class ([3]; qHTS FP screen hits, Table S2, one class per curve where COUNT > 1, negative sign = inhibitory curve): -1.2 |
| CC[P](CC)(CC)=[Au][S][C@@H]1O[C@H](COC(C)=O)[C@@H](OC(C)=O)[C@H](OC(C)=O)[C@H]1OC(C)=O [NCGC00160391-02] |  |  |  |  |  |  |  |  |  |  |  |  |  |  |  |  |  | 384-well SCREEN Confirm? [1]: YES; 384-well SCREEN Efficacy (%) [1]: 69%; IC50 [1]: 6.3 µM; 384-well COUNTERSCREEN Efficacy (%) [2]: 52%; IC50 [2]: 8.9 µM; CONFIRMATORY SCREEN Confirm? [3]: YES; CONFIRMATORY SCREEN Curve Class [3]: -1.2; CONFIRMATORY SCREEN Efficacy (%) [3]: -36%; IC50 ([3]; read-out: CONFIRMATORY SCREEN IC50): 31.6 µM; COUNTERSCREEN Confirm? [4]: YES; COUNTERSCREEN Curve Class [4]: 4; COUNTERSCREEN Efficacy (%) [4]: -14% |
| Cc1cc(S(=O)(=O)Nc2cnccc2C(=O)Nc2nc(-c3ccccc3)cs2)c(C)o1.O=C(O)C(F)(F)F [NCGC00345029-01] | 42% | YES | 20 µM | 16% | > 120 µM | YES | -1.1 | -83% |  |  |  | 10% | YES | 4 |  | YES |  |  |

— publication PMC11249646, “Small-Molecule Disruptors of the Interaction between Calcium- and Integrin-Binding Protein 1 and Integrin αIIbβ3 as Novel Antiplatelet Agents” (ACS Pharmacology & Translational Science, 2024)
